Measurements reported in patent publication US10682417B2, “Targeted sensitization of non-del(5q) malignant cells” (H. LEE MOFFITT CANCER CENTER AND RESEARCH INSTITUTE, INC., priority 2013, dated 2020).

How the values were obtained:
U937 cells = experiment: Apoptosis after dual Cdc25C/PP2Acα shRNA knockdown plus lenalidomide, U937 cells; format: cell-based; details: dual Cdc25C and PP2Acα shRNA knockdown 48 hours, then lenalidomide 5 μM for 48 hours
Protocol: (§1) FIGS. 2A-2B are images of an RT-PCR gel (FIG. 2A) and Western blot (FIG. 2B) to detect PP2A and Cdc25C gene (FIG. 2A) and protein (FIG. 2B) expression in U937 cells infected with mock (lane 1), lentiviral vectors encoding non-target shRNA control (lane 2), shCdc25C (lane 3), shPP2Acα (lane 4), shCdc25C and PP2Acα (lane 5) and negative for PCR (lane 6) and harvested 48 hours after incubation. FIGS. 2C and 2D are bar graphs showing P2Acα and Cdc25c mRNA expression (copies/GAPDH) in U937 cells infected with mock, lentiviral vectors encoding non-target shRNA control, shCdc25C, shPP2Acα, or shCdc25C and PP2Acα. FIGS. 2E-2F are bar graphs showing apoptosis (%) in U937 cells (E) or BM-MNC (F) that were infected with lentiviral vectors containing various constructs as indicated for 48 hours and then treated with or without lenalidomide at the concentration of […] for additional 48 hours before being analyzed for apoptosis. […]
(§2) U937 cells were infected with mock (lane 1), lentiviral vectors encoding non-target shRNA control (lane 2), shCdc25C (lane 3), shPP2Acα (lane 4), shCdc25C and PP2Acα (lane 5) and negative for PCR (lane 6). […] The U937 cells (FIG. 2C) or BM-MNC (FIG. 2D) were infected with lentiviral vectors containing various constructs as indicated for 48 hours and then treated with or without lenalidomide at the concentration of 5 μM for additional 48 hours before analyzed for apoptosis. […]

[1] = system: BM-MNC from non-(del)5q MDS patients; experiment: Apoptosis after dual Cdc25C/PP2Acα shRNA knockdown plus lenalidomide, BM-MNC; format: cell-based, human; details: dual knockdown 48 hours, then lenalidomide 5 μM for 48 hours, p<0.001 vs shRNA control plus lenalidomide, five patients
Protocol: as §1, §2

del5q MDS = details: patients with del5q MDS; cited from earlier work

Nc1cccc2c1CN(C1CCC(=O)NC1=O)C2=O (racemic) [lenalidomide, (RS)-3-(4-Amino-1-oxo 1,3-dihydro-2H-isoindol-2-yl)piperidine-2,6-dione]
apoptotic response to lenalidomide (U937 cells): increases apoptotic response | apoptotic response to lenalidomide [1]: increases apoptotic response | median duration of response (del5q MDS): 2.5 years
